Measured values taken from patent publication US20210145716A9, “COMPOSITION FOR HAIR FRIZZ REDUCTION” (The Procter & Gamble Company, priority 2015, published 2021).

Test: Expert rating of hair switches for frizz, clean feel and greasy feel
Conditions: 1% in ethanol/water leave-on, pH 4.2
Description: Additional leave-on treatment compositions are prepared (Tables 1 and 2) according to the procedure described above, which are used to treat hair switches using the procedure described above (amount of 0.10 g of composition per g of hair). The switch is kept at high humidity (above 85%) for 2 hours. Then, ten experts are asked to rate each hair switch in terms of frizz, clean feel, and greasy feel, based on a 5 point scale, 5 being the highest and 1 being the lowest rating. Acceptable values are: • For frizz, less than 2 (lower number corresponds to less frizz); • For no greasy feel less than 3, (lower number corresponds to less greasy feel), and • For clean feel greater than 3 (higher number corresponds to cleaner feel).

Structure (SMILES) | Hair switch rating summary (in words)
CCCCCCCCC(CO)CCCCCC (stereo not shown) [2-Hexyl-1-decanol] | frizz protection with clean feel and without greasy feel negative
O=S(=O)(O)c1ccc(O)cc1 [4-Hydroxybenzenesulphonic acid] | fizz protection with clean feel and without greasy feel negative
CC(C)CCCCCCCCCCCCCCCOC(=O)CCCCCCCCCCCCCCC(C)C [Isostearyl isostearate] | frizz protection with clean feel and without greasy feel negative
O=C(O)c1cc(Cl)ccc1O [5-Chlorosalicylic acid] | fizz protection with clean feel and without greasy feel negative
O=C(O)c1ccccc1O [Salicylic acid] | fizz protection with clean feel and without greasy feel negative
O=C(O)c1ccc(O)cc1O [2,4-Dihydroxybenzoic acid] | fizz protection with clean feel and without greasy feel negative
O=C(OCCO)c1ccccc1O [2-Hydroxyethyl salicylate] | frizz protection with clean feel and without greasy feel negative
